Columns and labels:
[1] = system: MDA-MB-231 human breast tumor xenographs; assay: Antitumor efficacy in nude mice with MDA-MB-231 xenographs, 2nd experiment; assay type: in vivo, athymic nude mice; conditions: (1:2) 25, DCP 23 and 69, calcium chloride dihydrate 4.2 mg/kg/day
Procedure: In the 2nd experiment, twenty-nine athymic nude, also purchased from Harlan Sprague Dawley, Inc. (Indianapolis, Ind.), were each injected subcutaneously with 10×10^6 MDA-MB-231 cancer cells into the right flank. When tumors reached 3-5 mm in size, the mice were divided into five treatment groups of five each and a control group of four mice. […] All the other mice in the 2nd experiment persisted ≧43 days without complications. Experimental groups were treated by oral gavage once daily with the indicated test suspensions or solutions.

plasma cytokines [2] = assay: Plasma cytokine levels (multiplex and single ELISA kits), 2nd experiment; assay type: in vivo, athymic nude mice; conditions: for IL-5: limit of detection 3.0; for IL-6: limit of detection 3.9; for IL-1β: limit of detection 4.1; for IL-10: limit of detection 24.6
Procedure: Cytokine levels in EDTA plasma from the mice in the 2nd experiment were measured at the UCSD Core Laboratory (San Diego, Calif.) using a multiplex assay kit for IL-1β, IL-2, IL-4, IL-5, IL-10, IL-12, IFN-γ, TNF-α and single ELISA kits for IL-6 and TGF-β1 by R&D Systems. […] For both the 1st and 2nd experiments, those measured cytokine values falling below the limits of detection were set to the higher assay limit for the purposes of the subsequent statistical analyses, and recorded as n.d. (not detectable) in Tables 1 through 3.

[3] = system: MDA-MB-231 human breast tumor xenographs; assay: Antitumor efficacy in nude mice with MDA-MB-231 xenographs, 1st experiment; assay type: in vivo, athymic nude (nu/nu) mice; conditions: 21 mg/kg/day
Procedure: The aims of the 1st experiment were to determine a dose-response curve for the (1:4 mol:mol) calcium pterin suspension, to compare the antitumor activity of this suspension to pterin alone (pterin control), and to test the effect of CaPterin mega-dosing at 100 mg/kg/day. Antitumor efficacy was evaluated in nude mice with MDA-MB-231 human tumor xenographs by Perry Scientific (San Diego, Calif.). In the 1st experiment, twenty-three athymic nude (nu/nu) female mice, ages 3-4 weeks, were purchased from Harlan Sprague Dawley, Inc. (Indianapolis, Ind.). 5×10^6 MDA-MB-231 cancer cells were injected subcutaneously into the right flank of each mouse. When tumors reached 3-5 mm in size, twenty mice were divided into four treatment/control groups of five mice each. The four treatment groups were: (1:4 mol:mol) calcium pterin (7 mg/kg/day); pterin (21 mg/kg/day); (1:4 mol:mol) calcium pterin (21 mg/kg/day); and sterile water control. Two mice with outlying tumor sizes or non-tumor takes were excluded shortly after treatment began: one from the pterin group and one from the control group. […] Only one outlier persisted >4 days, for 14 days. Also excluded from the metabolic analysis in the 1st experiment was one mouse from each of the four experimental groups mega-dosed by oral gavage with 100 mg/kg/day CaPterin for tip to 31 days to test for toxicity. All the other mice in the 1st experiment persisted ≧60 days without complications.
The control mice in the 1st experiment were treated with sterile water while the control mice in the 2nd experiment were untreated to evaluate the effect of mouse handling and gavaging upon tumor growth. Daily dosing was for 7 days per week. Animals were restrained but not anesthetized for oral dosing. Tumors were measured twice weekly with calipers and body weights taken twice weekly on the day of tumor measurements. Blood was collected from all animals via cardiac puncture at termination (after 70 to 98 days of treatment) and processed to EDTA plasma for analysis. Tumor size measurements for the control group in the 2nd experiment on days 4 and 7 were missed due to a technical oversight.
The MDA-MB-231 human breast tumor cell lines were supplied by SRI International (Menlo Park, Calif.) and propagated using standard in vitro cell expansion methods. Briefly, cells were grown in L-15 media from Gibco (Cat. No. 11415-064) supplemented with 2 mM L-Glutamine and 10% Fetal Bovine Serum (FBS). The cells were cultured in an incubator with 5% CO2, 37.5° C., and 80% humidity. Cells were harvested with 0.25% (w/v) Trypsin-0.03% (w/v) EDTA solution. Cells were prepared for injection by standard methods to appropriate concentrations. Animals were temporarily restrained but not anesthetized for the inoculation of the tumor cells. Animals were subcutaneously injected with the tumor cells in a 100-200 μl volume.
Each animal was individually tracked for tumor growth by external caliper measurements of protruding tumor. Primary tumor sizes were measured using calipers and an approximate tumor volume calculated using the formula 1/2 (a×b^2), where b was the smaller of two perpendicular diameters.
For each group, the mean and standard error of the mean (SEM) of the ratio V/Vo, Relative Tumor Volume (RTV), were plotted as a function of treatment time after inoculation. V0 was the tumor volume at Day 0, when treatment began.

plasma cytokines [4] = assay: Plasma cytokine levels by ELISA (LINCOplex), 1st experiment; assay type: in vivo, athymic nude (nu/nu) mice; conditions: Table 4, 21 mg/kg/d
Procedure: Cytokine levels in EDTA plasma from the mice in the 1st experiment were determined by ELISA assay at Alta Analytical Laboratories (San Diego, Calif.) using a LINCOplex Kit (Linco Research). Tryptophan (Trp) and kynurenine (Kyn) concentrations were measured from EDTA plasma samples by high pressure liquid chromatography (HPLC) using 3-nitro-L-tyrosine as the internal standard (Widner et al., 1997). To estimate IDO activity, the kynurenine to tryptophan ratio (Kyn/Trp) was calculated and expressed as μmol kynurenine/mmol tryptophan (Wirleitner, 2003). The values from five mice in the 1st experiment are not included in the summary statistics given in Table 1 for the following reasons. One mouse from each of the four treatment groups was used to test the effects of mega dosing, i.e., with (1:4 mol:mol) calcium pterin at 100 mg/kg/day after Day 60 of treatment, and are excluded. Also excluded was one mouse from the (1:4 mol:mol) calcium pterin (7 mg/kg/day) group which expired suddenly a few days before blood was collected. Cytokine measurements <3.2 pg/ml are reported as n.d. (not detectable) because the standard curves used in the ELISA assays were not calibrated below that level.
Cytokine levels in EDTA plasma from the mice in the 1st experiment were determined by ELISA assay at Alta Analytical Laboratories (San Diego, Calif.) using a LINCOplex Kit (Linco Research).
Cytokine levels in EDTA plasma from the mice in the 2nd experiment were measured at the UCSD Core Laboratory (San Diego, Calif.) using a multiplex assay kit for IL-1β, IL-2, IL-4, IL-5, IL-10, IL-12, IFN-γ, TNF-α and single ELISA kits for IL-6 and TGF-β1 by R&D Systems. EDTA plasma samples from two of the three ungavaged controls were lost due to handling error. For both the 1st and 2nd experiments, those measured cytokine values falling below the limits of detection were set to the higher assay limit for the purposes of the subsequent statistical analyses, and recorded as n.d. (not detectable) in Tables 1 through 3.

[5] = system: MDA-MB-231 xenograph tumors; assay: Combined analysis of DCP + control mice: Day 42,43 relative tumor volume and DCP/APCP; assay type: in vivo, nude mice; conditions: 25 mg/(kg day); Day 42,43 relative tumor volume; combined data
Procedure: Standard ANOVA models for group effects, curve fitting, and stepwise regression analyses were carried out using SPSS Graduate Pack 15.0 for Windows (2006), with p<0.05 used to determine significance.
Table 7 gives the plasma cytokine and relative tumor volume Spearman rank order correlations for the 12 DCP+ control mice (Control [n=3; from 1st experiment]; 23 mg/(kg d) DCP [n=5; from 2nd experiment]; and 69 mg/(kg d) DCP [n=4; from 2nd experiment]).
To further determine significant causal and correlational linkages among DCP dosage, plasma cytokine changes, and relative tumor volume, the following curve fitting analyses were carried out with the 12 DCP+ control mice. First, plotting DCP versus Day 42,43 Relative Tumor Volume yielded a significant quadratic relationship (FIG. 11). Second, curve fitting each cytokine versus Day 42,43 Relative Tumor Volume found no significant linear relationship and only one significant quadratic relationship, i.e., with IL-12 (p=0.004; FIG. 12). Third, plotting DCP versus IL-12 yielded a weakly significant quadratic relationship (p=0.048; FIG. 13).
Substantially more significant analogous plots were generated by first carrying out the Table 8 stepwise regression analysis which derived the DCP antitumor plasma cytokine pattern (DCP/APCP), shown to be a more significant cytokine composite measure than IL-12 taken alone. The Table 8 stepwise regression analysis of the cytokine data from the 12 DCP+ control mice allowed for the calculation of DCP/APCP scores for each mouse. These DCP/APCP scores are plotted versus DCP dosage in […], which illustrates the significant quadratic dose-response relationships of DCP versus the derived plasma DCP/APCP composite measure. From this figure the estimated optimum dosage of DCP for maximum tumor growth inhibition is 42 mg/(kg day), while the estimated optimum dosage for maximum DCP/APCP induction is 44 mg/(kg day).

[6] = 2nd experiment, CaCl2 group, 4.2 mg/kg/day
[7] = 2nd experiment, CaCl2 group, 4.2 mg/kg/day, limit of detection 3.2
[8] = 2nd experiment, 25 mg/kg/d, limit of detection 3.2

## O.O.[Ca+2].[Cl-].[Cl-] [CaCl2•2H2O, calcium chloride dihydrate, reference compound]
[1]
  MDA-MB-231 xenograph growth inhibition: significantly inhibit
Plasma cytokines [2]; 4.2 mg/(kg day)
  plasma IL-12 versus control (FIG. 10): significantly elevated
Plasma cytokines [2]; [6]
  IL-5: 10.3 ± 2.4 pg/mL
  IL-6: 44.4 ± 15.4 pg/mL
  IL-1β: 6.4 ± .9 pg/mL
  IL-10: 26.5 ± 1.9 pg/mL
Plasma cytokines [2]; [7]
  IFN-γ: 9.7 ± 3.3 pg/mL
  IL-4: 3.6 ± .3 pg/mL
  IL-12: 904.9 ± 156.9 pg/mL
Plasma cytokines [2]; 2nd experiment, CaCl2 group, 4.2 mg/kg/day, limit of detection 12.6
  IL-2: 12.7 ± .13 pg/mL
Plasma cytokines [2]; 2nd experiment, CaCl2 group, 4.2 mg/kg/day, limit of detection 31.2
  TGF-β1: 74.3 ± 35.0 pg/mL

## Nc1nc2nccnc2c(=O)[nH]1 [Pterin, 2-amino-4(3H)-pteridinone]
[3]
  antitumor activity (tumor growth vs control): no antitumor activity
Plasma cytokines [4]; limit of detection 3.2
  IL-12: 48.5 ± 45.3 pg/mL
  TNF-α: 9.0 ± 3.7 pg/mL
Plasma cytokines [4]; limit of detection 4.1
  IL-1β: 64.6 ± 60.4 pg/mL
Plasma cytokines [4]; plasma at sacrifice, limit of detection 3.9
  IL-6: 87.4 ± 11.0 pg/mL

## (1:2 mol:mol) calcium pterin
[1]
  MDA-MB-231 xenograph growth inhibition: significantly inhibit
Plasma cytokines [2]; 2nd experiment, 25 mg/kg/d
  IL-5: 4.4 ± .9 pg/mL
  IL-6: 31.6 ± 9.2 pg/mL
  IL-1β: 4.9 ± .5 pg/mL
  IL-10: 30.2 ± 5.6 pg/mL
Plasma cytokines [2]; [8]
  IFN-γ: 16.1 ± 12.9 pg/mL
  IL-12: 315.2 ± 71.0 pg/mL
Plasma cytokines [2]; at the dosages tested
  increases in plasma IL-12 (FIG. 10): lower, non-significant increases
[5]
  tumor growth inhibition relative to controls (FIG. 9): significant tumor growth inhibition

— patent US20120251495A1, “PTERIN BASED THERAPIES FOR INFLAMMATORY CONDITIONS” (priority 2008, published 2012)
